In the test the test system is moles. Description: Mole bait article fed to moles, killing of moles. In kind it is in vivo. As to conditions: bromethalin absorbed from a single mole bait article; oral consumption by mole. As to the method: In developing the mole bait article containing gelatin, sorbitol and glycerin according to the above-outlined exemplary embodiment, the applicants screened a large number of elastomers and plasticizers. This screening included determining an appropriate ratio of components by stretching the resultant mole bait article, where the length of the mole bait article was measured before, during and after stretching. This screening also included stretching the mole bait article until the mole bait article broke, thus allowing the tensile strength of the mole bait article to be determined. This screening included providing the mole bait article having the identified formula to moles and observing whether the moles would consume the resultant mole bait article. Finally, this screening included determining whether the mole bait article, when digested by the moles, is sufficiently digestible that a single mole bait article releases an effective amount of the active ingredient into the moles' systems.
In contrast, in various exemplary embodiments of the mole bait article according to this invention, the mole bait article is sufficiently digestible that a single mole bait article according to this invention, upon being consumed and digested, is able to release an effective dose of the active ingredient to the mole. […]

The structures appear in SMILES notation.

Consider `CN(c1c(Br)cc(Br)cc1Br)c1c([N+](=O)[O-])cc([N+](=O)[O-])cc1C(F)(F)F` [Bromethalin], for which the “dose received from a single mole bait article during its time in the mole's digestive system” value is “lethal dose from a single one of the mole bait articles”.
